Patent US11576912B2, “Target genes in MYC-driven neoplasia” (The Board of Trustees of the Leland Stanford Junior …, priority 2017, dated 2023)

What was measured:
EC4 cells [1] = test: EU labeling and imaging of total RNA distribution (RNA export); assay type: cell-based, mouse; conditions: EC4 cells overexpressing MYC, 150 nM KPT-330, 5 h EU labeling, compared with DMSO controls
Method: EU-Labeling and Visualization of Total RNA EC4 cells were labeled with 1 mM 5-ethynyl uridine (EU) for 5h in the presence of 150 nM KPT-330 or vehicle (DMSO control) at 37 degrees and 5% CO2. Cells were then fixed with 4% formaldehyde in PBS at room temperature for 20 minutes, washed consecutively with PBS, 50 mM NH4Cl/PBS, PBS (10 minutes each) and permeabilized with 0.2% TritonX100/PBS. After washing with PBS, EU was labeled with Alexa-647-azide using the Click-IT imaging kit (Invitrogen) following the manufacturer's instructions. Images were acquired on a DMI 6000 B (Leica) epifluorescence microscope. Mean fluorescence intensities in regions of interest in the cytoplasm and in the nucleus omitting nucleoli were determined using ImageJ.

[2] = IC50 determination, CellTiter-Glo cell viability, low MYC liver cancer cell lines and normal fibroblasts; assay type: cell-based; conditions: Homo sapiens; range over normal fibroblast cell line and liver cancer cell lines with low MYC expression, 72 hours
Method: (§1) IC50 Determination Cells were seeded at a density of 1000-2000 cells/well in 96-well plates. Cells were treated with different concentrations of KPT-330 (1:3 dilution from 10 micromolar to 0.33 nanomolar) for 72 hours. MYC expression was shut off by treating the cells with doxycycline (100ng/ml). All experiments were performed in quadruplicates. Cell viability was determined using the CellTiter-Glo Luminescent Cell Viability Assay (Promega). The IC50 was calculated using the Prism software (GraphPad). The log-transformed concentration values and the normalized luminance data were fitted to a four-parameter logistic equation to derive the IC50 value.

EC4 cells [3] = test: Flow cytometric analysis of apoptosis (7-AAD/Annexin V); assay type: cell-based, mouse; conditions: versus DMSO
Method: Flow Cytometric Analysis of Apoptosis For apoptosis staining, cells were stained with 7-AAD and PE-Annexin-V (Becton Dickinson) and analyzed on a FACScan flow cytometer following manufacturer's instructions. FACS data was analyzed with FlowJo software (Tree Star). The apoptotic cell populations were defined by positive staining of both Annexin-V and 7-AAD.

[4] = IC50 determination, CellTiter-Glo cell viability, cell lines with high MYC expression; assay type: cell-based, human and mouse; conditions: Mus musculus; range over MYC overexpressing cancer cell lines, 72 hours
Method: as §1

[5] = test system: primary liver tumors in the LAP-tTA/tet-O-MYC mouse model
Method: KPT-330 Treatment In Vivo and Monitoring the Tumor Size
The KPT-330 (Selleckchem) was dissolved in vehicle (1% Pluronic F-68 and 1% PVP-K29/32, 25 mg/kg) was administered by oral gavage to tumor-bearing mice three times a week for 6 doses total. A 7T MRI for small animals was used to image tumor both before and after treatment. Tumor volume was calculated based on the T2 weighted image stacks using the Osirix software. For short-term treatment, the mice were treated with either vehicle or KPT-330 for three doses and sacrificed the following day after the third dose.
Western Blot and Immunohistochemical Analysis
The following antibodies were used for Western blotting and IHC: MYC (9E10 for Western blot and Epitomics 1472-1 for IHC), Tubulin (Sigma), Cleaved caspase 3 and phospho-Histone H3 (Cell Signaling). Immunofluorescence or bright field pictures were taken with 20× objectives on a Leica DMI6000 B microscope and quantified using MetaMorph image analysis software.

[6] = short-term treatment, three doses

## O=C(/C=C\n1cnc(-c2cc(C(F)(F)F)cc(C(F)(F)F)c2)n1)NNc1cnccn1 [KPT-330]
EC4 cells [1]
  RNA distribution in the cytoplasm: significantly reduced RNA distribution in the cytoplasm
  RNA nuclear-cytoplasmic ratio: increased RNA nuclear-cytoplasmic ratio
[2]
  IC50: ≥ 0.3 µM
EC4 cells [3]; EC4 cells with MYC OFF (doxycycline)
  increase in apoptosis: modest increase in apoptosis
EC4 cells [3]; EC4 cells with MYC overexpression (MYC ON)
  induction of tumor cell apoptosis: four-fold induction of tumor cell apoptosis
[4]
  IC50: 0.07 to 0.3 µM
[5]; 25 mg/kg oral gavage three times a week, 6 doses, two weeks, MRI before and after
  reduction in tumor volume: more than 95%
[5]; H&E staining of tumor sections
  histological examination of tumor sections: only sporadic tumor cells left
[5]; mouse, in vivo
  proliferation or apoptosis in adjacent liver tissues (toxicity to normal hepatocytes): minimal toxicity to the normal hepatocytes
[5]; [6]
  tumor cell apoptosis by cleaved caspase-3 staining: significantly induced apoptosis
  tumor cell proliferation by phospho-histone H3 staining: completely suppressed the proliferation
[5]; two mice with smaller tumors, 6 doses, two weeks
  tumor regression according to MRI scan: complete tumor regression
